Measured values as given in patent publication US12568972B2, “Pyridazinol compounds and derivatives, preparation methods, herbicidal compositions and applications thereof” (Qingdao Kingagroot Chemical Compound Co., Ltd., priority 2018, dated 2026).

Experiments:
Test in all cases: Post-emergence test, weed control effect
Format in all cases: in vivo
Settings in all cases: Dose 3000 g/ha, after 3 weeks
Amaranthus retroflexus = tested on: Amaranthus retroflexus
From the text: (§1) The activity level standard of harmful plant destruction (i.e. growth inhibition rate) is as follows: • Level 10: completely dead; • Level 9: above 90% growth inhibition rate; • Level 8: above 80% growth inhibition rate; • Level 7: above 70% growth inhibition rate; • Level 6: above 60% growth inhibition rate; • Level 5: above 50% growth inhibition rate; • Level 4: above 40% growth inhibition rate; • Level 3: above 30% growth inhibition rate; • Level 2: above 20% growth inhibition rate; • Level 1: below 20% growth inhibition rate; • Level 0: no effect.
(§2) The above described growth inhibition rates are fresh weight inhibition rates.
(§3) Experiment of post-emergence test: monocotyledonous and dicotyledonous weed seeds as well as main crop seeds (i.e., wheat, corn, rice, soybean, cotton, oilseed rape, millet and sorghum) were put into a plastic pot loaded with soil, then covered with 0.5-2 cm of soil, and the seeds were allowed to grow in good greenhouse environment. The test plants were treated at 2-3 leaf stage 2-3 weeks after sowing. The test compounds of the invention were dissolved in acetone respectively, then added with Tween-80 and diluted by a certain amount of water to give solutions with certain concentrations, and added with 80% vegetable oil methyl ester synergist at 1500 g/ha. The solution was sprayed to the plants with a sprayer. The plants were cultured for 3 weeks in the greenhouse.

Chenopodiaceae = tested on: Chenopodiaceae
From the text: as §1, §2, §3

Rorippa indica = tested on: Rorippa indica
From the text: as §1, §2, §3

Veronica polita = tested on: Veronica polita
From the text: as §1, §2, §3

CN1CCN(C(=O)Oc2cc(C(F)(F)F)nnc2-c2ccc(F)cc2)CC1 [Compound 1-64]
10: weed control effect, Amaranthus retroflexus (activity level) (Amaranthus retroflexus) | weed control effect, Chenopodiaceae (activity level) (Chenopodiaceae) | weed control effect, Rorippa indica (activity level) (Rorippa indica) | weed control effect, Veronica polita (activity level) (Veronica polita)

O=C(Oc1cc(C(F)(F)F)nnc1-c1ccccc1)N1CCOCC1 [Compound 1-65]
10: weed control effect, Amaranthus retroflexus (activity level) (Amaranthus retroflexus) | weed control effect, Chenopodiaceae (activity level) (Chenopodiaceae) | weed control effect, Rorippa indica (activity level) (Rorippa indica) | weed control effect, Veronica polita (activity level) (Veronica polita)

O=C(Oc1cc(C(F)(F)F)nnc1-c1ccc(F)c(F)c1)N1CCOCC1 [Compound 1-66]
10: weed control effect, Amaranthus retroflexus (activity level) (Amaranthus retroflexus) | weed control effect, Chenopodiaceae (activity level) (Chenopodiaceae) | weed control effect, Rorippa indica (activity level) (Rorippa indica) | weed control effect, Veronica polita (activity level) (Veronica polita)

O=C(Oc1cc(C(F)(F)F)nnc1-c1ccc(F)cc1)N1CCCCC1 [Compound 1-67]
10: weed control effect, Amaranthus retroflexus (activity level) (Amaranthus retroflexus) | weed control effect, Chenopodiaceae (activity level) (Chenopodiaceae) | weed control effect, Rorippa indica (activity level) (Rorippa indica) | weed control effect, Veronica polita (activity level) (Veronica polita)

O=C(Oc1cc(C(F)(F)F)nnc1-c1ccc(F)cc1)N1CCOCC1 [Compound 1-68]
10: weed control effect, Amaranthus retroflexus (activity level) (Amaranthus retroflexus) | weed control effect, Chenopodiaceae (activity level) (Chenopodiaceae) | weed control effect, Rorippa indica (activity level) (Rorippa indica) | weed control effect, Veronica polita (activity level) (Veronica polita)

O=C1CCCCN1C(=O)Oc1cc(C(F)(F)F)nnc1-c1ccc(F)cc1 [Compound 1-69]
10: weed control effect, Amaranthus retroflexus (activity level) (Amaranthus retroflexus) | weed control effect, Chenopodiaceae (activity level) (Chenopodiaceae) | weed control effect, Rorippa indica (activity level) (Rorippa indica) | weed control effect, Veronica polita (activity level) (Veronica polita)

COC(=O)CCCCC(=O)Oc1cc(C(F)(F)F)nnc1-c1ccc(F)cc1 [Compound 1-70]
10: weed control effect, Amaranthus retroflexus (activity level) (Amaranthus retroflexus) | weed control effect, Chenopodiaceae (activity level) (Chenopodiaceae) | weed control effect, Rorippa indica (activity level) (Rorippa indica) | weed control effect, Veronica polita (activity level) (Veronica polita)

COCC(=O)Oc1cc(C(F)(F)F)nnc1-c1ccc(F)c(F)c1 [Compound 1-71]
10: weed control effect, Amaranthus retroflexus (activity level) (Amaranthus retroflexus) | weed control effect, Chenopodiaceae (activity level) (Chenopodiaceae) | weed control effect, Rorippa indica (activity level) (Rorippa indica) | weed control effect, Veronica polita (activity level) (Veronica polita)

CCO/C=C/C(=O)Oc1cc(C(F)(F)F)nnc1-c1cccc(F)c1 [Compound 1-75]
10: weed control effect, Amaranthus retroflexus (activity level) (Amaranthus retroflexus) | weed control effect, Chenopodiaceae (activity level) (Chenopodiaceae) | weed control effect, Rorippa indica (activity level) (Rorippa indica) | weed control effect, Veronica polita (activity level) (Veronica polita)

CC(=O)CC(=O)Oc1cc(C(F)(F)F)nnc1-c1ccc(F)cc1 [Compound 1-76]
10: weed control effect, Amaranthus retroflexus (activity level) (Amaranthus retroflexus) | weed control effect, Chenopodiaceae (activity level) (Chenopodiaceae) | weed control effect, Rorippa indica (activity level) (Rorippa indica) | weed control effect, Veronica polita (activity level) (Veronica polita)

CSCCC(=O)Oc1cc(C(F)(F)F)nnc1-c1ccc(F)c(F)c1 [Compound 1-77]
10: weed control effect, Amaranthus retroflexus (activity level) (Amaranthus retroflexus) | weed control effect, Chenopodiaceae (activity level) (Chenopodiaceae) | weed control effect, Rorippa indica (activity level) (Rorippa indica) | weed control effect, Veronica polita (activity level) (Veronica polita)

CP(=O)(O)CCC(N)C(=O)Oc1cc(C(F)(F)F)nnc1-c1ccc(F)cc1 (centres unmarked) [Compound 1-78]
10: weed control effect, Amaranthus retroflexus (activity level) (Amaranthus retroflexus) | weed control effect, Chenopodiaceae (activity level) (Chenopodiaceae) | weed control effect, Rorippa indica (activity level) (Rorippa indica) | weed control effect, Veronica polita (activity level) (Veronica polita)

O=C(Oc1cc(C(F)(F)F)nnc1-c1ccc(F)c(F)c1)c1ccccc1 [Compound 1-79]
10: weed control effect, Amaranthus retroflexus (activity level) (Amaranthus retroflexus) | weed control effect, Chenopodiaceae (activity level) (Chenopodiaceae) | weed control effect, Rorippa indica (activity level) (Rorippa indica) | weed control effect, Veronica polita (activity level) (Veronica polita)

Cc1ccc(-c2nnc(C(F)(F)F)cc2OC(=O)c2ccccc2C)cc1 [Compound 1-80]
10: weed control effect, Amaranthus retroflexus (activity level) (Amaranthus retroflexus) | weed control effect, Chenopodiaceae (activity level) (Chenopodiaceae) | weed control effect, Rorippa indica (activity level) (Rorippa indica) | weed control effect, Veronica polita (activity level) (Veronica polita)

O=C(Oc1cc(C(F)(F)F)nnc1-c1ccc(Cl)cc1)c1ccccc1Cl [Compound 1-83]
10: weed control effect, Amaranthus retroflexus (activity level) (Amaranthus retroflexus) | weed control effect, Chenopodiaceae (activity level) (Chenopodiaceae) | weed control effect, Rorippa indica (activity level) (Rorippa indica) | weed control effect, Veronica polita (activity level) (Veronica polita)

COc1ccc(C(=O)Oc2cc(C(F)(F)F)nnc2-c2ccc(F)c(F)c2)cc1 [Compound 1-84]
10: weed control effect, Amaranthus retroflexus (activity level) (Amaranthus retroflexus) | weed control effect, Chenopodiaceae (activity level) (Chenopodiaceae) | weed control effect, Rorippa indica (activity level) (Rorippa indica) | weed control effect, Veronica polita (activity level) (Veronica polita)

O=C(Oc1cc(C(F)(F)F)nnc1-c1ccc(F)cc1)c1ccccc1O [Compound 1-85]
10: weed control effect, Amaranthus retroflexus (activity level) (Amaranthus retroflexus) | weed control effect, Chenopodiaceae (activity level) (Chenopodiaceae) | weed control effect, Rorippa indica (activity level) (Rorippa indica) | weed control effect, Veronica polita (activity level) (Veronica polita)

CC(=O)Oc1ccccc1C(=O)Oc1cc(C(F)(F)F)nnc1-c1ccccc1 [Compound 1-87]
10: weed control effect, Amaranthus retroflexus (activity level) (Amaranthus retroflexus) | weed control effect, Chenopodiaceae (activity level) (Chenopodiaceae) | weed control effect, Rorippa indica (activity level) (Rorippa indica) | weed control effect, Veronica polita (activity level) (Veronica polita)

O=C(Oc1cc(C(F)(F)F)nnc1-c1ccc(C(F)(F)F)cc1)c1cccc(OC(F)(F)F)c1 [Compound 1-88]
10: weed control effect, Amaranthus retroflexus (activity level) (Amaranthus retroflexus) | weed control effect, Chenopodiaceae (activity level) (Chenopodiaceae) | weed control effect, Rorippa indica (activity level) (Rorippa indica) | weed control effect, Veronica polita (activity level) (Veronica polita)

CN(C)c1ccc(C(=O)Oc2cc(C(F)(F)F)nnc2-c2cccc(F)c2)cc1 [Compound 1-90]
10: weed control effect, Amaranthus retroflexus (activity level) (Amaranthus retroflexus) | weed control effect, Chenopodiaceae (activity level) (Chenopodiaceae) | weed control effect, Rorippa indica (activity level) (Rorippa indica) | weed control effect, Veronica polita (activity level) (Veronica polita)

O=C(Oc1cc(C(F)(F)F)nnc1-c1ccc(F)cc1)c1ccc(Cl)cc1Cl [Compound 1-91]
10: weed control effect, Amaranthus retroflexus (activity level) (Amaranthus retroflexus) | weed control effect, Chenopodiaceae (activity level) (Chenopodiaceae) | weed control effect, Rorippa indica (activity level) (Rorippa indica) | weed control effect, Veronica polita (activity level) (Veronica polita)

O=C(Oc1cc(C(F)(F)F)nnc1-c1ccc(F)cc1)c1cc(F)cc(F)c1F [Compound 1-93]
10: weed control effect, Amaranthus retroflexus (activity level) (Amaranthus retroflexus) | weed control effect, Chenopodiaceae (activity level) (Chenopodiaceae) | weed control effect, Rorippa indica (activity level) (Rorippa indica) | weed control effect, Veronica polita (activity level) (Veronica polita)

O=C(Cc1ccccc1)Oc1cc(C(F)(F)F)nnc1-c1ccc(F)c(F)c1 [Compound 1-94]
10: weed control effect, Amaranthus retroflexus (activity level) (Amaranthus retroflexus) | weed control effect, Chenopodiaceae (activity level) (Chenopodiaceae) | weed control effect, Rorippa indica (activity level) (Rorippa indica) | weed control effect, Veronica polita (activity level) (Veronica polita)

O=C(CSc1ccccc1)Oc1cc(C(F)(F)F)nnc1-c1ccc(F)c(F)c1 [Compound 1-95]
10: weed control effect, Amaranthus retroflexus (activity level) (Amaranthus retroflexus) | weed control effect, Chenopodiaceae (activity level) (Chenopodiaceae) | weed control effect, Rorippa indica (activity level) (Rorippa indica) | weed control effect, Veronica polita (activity level) (Veronica polita)

O=C(/C=C\c1ccccc1)Oc1cc(C(F)(F)F)nnc1-c1ccc(Cl)cc1 [Compound 1-96]
10: weed control effect, Amaranthus retroflexus (activity level) (Amaranthus retroflexus) | weed control effect, Chenopodiaceae (activity level) (Chenopodiaceae) | weed control effect, Rorippa indica (activity level) (Rorippa indica) | weed control effect, Veronica polita (activity level) (Veronica polita)

O=C(/C=C/c1ccc(Cl)cc1)Oc1cc(C(F)(F)F)nnc1-c1ccc(F)cc1 [Compound 1-97]
10: weed control effect, Amaranthus retroflexus (activity level) (Amaranthus retroflexus) | weed control effect, Chenopodiaceae (activity level) (Chenopodiaceae) | weed control effect, Rorippa indica (activity level) (Rorippa indica) | weed control effect, Veronica polita (activity level) (Veronica polita)

O=C(CCc1ccccc1)Oc1cc(C(F)(F)F)nnc1-c1ccc(F)c(F)c1 [Compound 1-98]
10: weed control effect, Amaranthus retroflexus (activity level) (Amaranthus retroflexus) | weed control effect, Chenopodiaceae (activity level) (Chenopodiaceae) | weed control effect, Rorippa indica (activity level) (Rorippa indica) | weed control effect, Veronica polita (activity level) (Veronica polita)

O=C(CCc1ccccc1)Oc1cc(C(F)(F)F)nnc1-c1ccc(F)cc1 [Compound 1-99]
10: weed control effect, Amaranthus retroflexus (activity level) (Amaranthus retroflexus) | weed control effect, Chenopodiaceae (activity level) (Chenopodiaceae) | weed control effect, Rorippa indica (activity level) (Rorippa indica) | weed control effect, Veronica polita (activity level) (Veronica polita)

O=C(COCc1ccccc1)Oc1cc(C(F)(F)F)nnc1-c1ccc(F)c(F)c1 [Compound 1-100]
10: weed control effect, Amaranthus retroflexus (activity level) (Amaranthus retroflexus) | weed control effect, Chenopodiaceae (activity level) (Chenopodiaceae) | weed control effect, Rorippa indica (activity level) (Rorippa indica) | weed control effect, Veronica polita (activity level) (Veronica polita)

COc1ccc(OCC(=O)Oc2cc(C(F)(F)F)nnc2-c2ccc(F)cc2)cc1 [Compound 1-101]
10: weed control effect, Amaranthus retroflexus (activity level) (Amaranthus retroflexus) | weed control effect, Chenopodiaceae (activity level) (Chenopodiaceae) | weed control effect, Rorippa indica (activity level) (Rorippa indica) | weed control effect, Veronica polita (activity level) (Veronica polita)

O=C(Oc1cc(C(F)(F)F)nnc1-c1ccc(Cl)c(Cl)c1)Sc1ccccc1 [Compound 1-102]
10: weed control effect, Amaranthus retroflexus (activity level) (Amaranthus retroflexus) | weed control effect, Chenopodiaceae (activity level) (Chenopodiaceae) | weed control effect, Rorippa indica (activity level) (Rorippa indica) | weed control effect, Veronica polita (activity level) (Veronica polita)

CSc1ccc(-c2nnc(C(F)(F)F)cc2OC(=O)SCCc2ccccc2)cc1 [Compound 1-103]
10: weed control effect, Amaranthus retroflexus (activity level) (Amaranthus retroflexus) | weed control effect, Chenopodiaceae (activity level) (Chenopodiaceae) | weed control effect, Rorippa indica (activity level) (Rorippa indica) | weed control effect, Veronica polita (activity level) (Veronica polita)
